The values that follow come from patent US10851080B2, “Methods of treatment using pyrrolidinyl urea, thiourea, guanidine and cyanoguanidine compounds” (Array BioPharma Inc., priority 2012, dated 2020).

Assay [1] concerns the target His-tagged recombinant human TrkA (Homo sapiens (Human), UniProt P04629). Briefly: TrkA LanthaScreen Eu Kinase Binding Assay. To be noted: averaged IC50, TrkA binding assay of Example A; read-out: TrkA Enzyme IC50. As to the method: TrkA binding activity was determined in a TrkA LanthaScreen™ Eu Kinase Binding Assay. 5 nM His-tagged recombinant human TrkA (6HIS tagged cytoplasmic domain from Invitrogen, Catalog No. PV3144) was incubated with 4 nM Alexa-Fluor® Tracer 236 (Invitrogen Cat. No. PV5592), 2 nM biotinylated anti-His (Invitrogen Cat. No. PV6090), and 2 nM europium-labeled Streptavidin (Invitrogen Cat. No. PV5899), in buffer (25 mM MOPS, pH 7.5, 5 mM MgCl2, 0.005% Triton X-100). Three fold serial dilutions of compounds of the invention in DMSO were added to a final percentage of 2% DMSO. After 60-minute incubation at 22° C., the reaction was measured using the EnVision mutlimode plate reader (PerkinElmer) via TR-FRET dual wavelength detection at […]. The percent of control was calculated using a ratiometric emission factor. The IC50 values were determined by fitting a four parameter model to the percent of control data.
Table A provides averaged IC50 values for compounds of the invention when tested in the assay of Example A, where A represents an averaged IC50 value <100 nM.
(In TR-FRET formats the signal depends on donor and acceptor labels being close together.)

For a further assay, the system named is off-target kinases. Briefly: KinaseProfiler full kinase panel (overall). To be noted: 10 μM; for activity against off-target kinases: full kinase panel; for selectivity for inhibiting TrkA versus other kinases in the panel: panel of about 230 kinases. It is filed as biochemical. As for the experimental part:
Two representative compounds (Example 2, 14) of the invention were tested for off-target kinase activity at a concentration of 10 μM by Millipore, Inc. in their KinaseProfiler™ service against all the kinases available in their full kinase panel. These compounds were run in duplicate at a concentration of ATP near the Km for each individual kinase according to Millipore's specifications. The results are shown in Table B. Data are reported as percent of control (POC) and are the average of the two replicates.
Such a drug profile would represent a safer approach to treating pain, inflammation, cancer and certain skin diseases than has been previously reported.

Chain of His-tagged recombinant human TrkA (P04629 440-796): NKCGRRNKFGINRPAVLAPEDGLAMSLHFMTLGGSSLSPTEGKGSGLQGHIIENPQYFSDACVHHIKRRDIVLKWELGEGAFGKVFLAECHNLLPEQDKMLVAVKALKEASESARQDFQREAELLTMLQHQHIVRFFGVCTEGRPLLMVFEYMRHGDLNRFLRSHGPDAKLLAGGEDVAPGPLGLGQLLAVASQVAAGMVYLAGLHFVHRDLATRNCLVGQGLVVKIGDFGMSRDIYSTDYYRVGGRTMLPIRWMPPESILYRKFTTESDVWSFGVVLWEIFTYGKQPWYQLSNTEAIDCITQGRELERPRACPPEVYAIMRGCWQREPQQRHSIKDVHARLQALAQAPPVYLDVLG

As for `COCCN1C[C@@H](NC(=O)Nc2c(C)c(-c3ccc(=O)n(C)c3)nn2-c2ccccc2)[C@H](c2ccc(F)c(Cl)c2)C1` (relative stereo) [Example 22, 1-(trans-4-(3-chloro-4-fluorophenyl)-1-(2-methoxyethyl)pyrrolidin-3-yl)-3-(4-methyl-3-(1-methyl-6-oxo-1,6-di hydropyridin-3-yl)-1-phenyl-1H-pyrazol-5-yl)urea], the IC50 – broadly, the concentration at which inhibition is half-maximal – in assay [1] is less than 100 nM.
As to `COCCN1C[C@@H](NC(=O)Nc2c(C)c(-c3ccc(=O)n(C)c3)nn2-c2ccccc2)[C@H](c2ccc(Cl)c(F)c2)C1` (relative stereo) [Example 23, 1-(trans-4-(4-chloro-3-fluorophenyl)-1-(2-methoxyethyl)pyrrolidin-3-yl)-3-(4-methyl-3-(1-methyl-6-oxo-1,6-dihydropyridin-3-yl)-1-phenyl-1H-pyrazol-5-yl)urea], the IC50 in assay [1] was less than 100 nM.
`COCCN1C[C@@H](NC(=O)Nc2c(C)c(-c3ccc(=O)n(C)c3)nn2-c2ccccc2)[C@H](c2cc(F)cc(Cl)c2)C1` (relative stereo) [Example 24, 1-(trans-4-(3-chloro-5-fluorophenyl)-1-(2-methoxyethyl)pyrrolidin-3-yl)-3-(4-methyl-3-(1-methyl-6-oxo-1,6-di hydropyridin-3-yl)-1-phenyl-1H-pyrazol-5-yl)urea]: in assay [1], the IC50 is less than 100 nM.
As for `COCCN1C[C@@H](NC(=O)Nc2c(C)c(-c3ccc(=O)n(C)c3)nn2-c2ccccc2)[C@H](c2cccc(Cl)c2)C1` (relative stereo) [Example 25, 1-(trans-4-(3-chlorophenyl)-1-(2-methoxyethyl)pyrrolidin-3-yl)-3-(4-methyl-3-(1-methyl-6-oxo-1,6-di hydropyridin-3-yl)-1-phenyl-1H-pyrazol-5-yl)urea], in assay [1], the IC50 is less than 100 nM.
For the molecule `COCCN1C[C@@H](NC(=O)Nc2c(C)c(-c3ccnc(C)c3)nn2-c2ccccc2)[C@H](c2ccc(F)c(F)c2)C1` [Example 2, 1-((3S,4R)-4-(3,4-difluorophenyl)-1-(2-methoxyethyl)pyrrolidin-3-yl)-3-(4-methyl-3-(2-methylpyridin-4-yl)-1-phenyl-1H-pyrazol-5-yl)urea], in the assay on off-target kinases, the “activity against off-target kinases” value is “largely inactive”; the “selectivity for inhibiting TrkA versus other kinases in the panel” value is “remarkable and unexpected selectivity”.
`COCCN1C[C@@H](NC(=O)Nc2c(C)c(-c3cnc(C)nc3)nn2-c2ccccc2)[C@H](c2cc(F)cc(F)c2)C1` [Example 14, 1-((3S,4R)-4-(3,5-difluorophenyl)-1-(2-methoxyethyl)pyrrolidin-3-yl)-3-(4-methyl-3-(2-methylpyrimidin-5-yl)-1-phenyl-1H-pyrazol-5-yl)urea]: in the assay with off-target kinases, the “activity against off-target kinases” value is “largely inactive”; the “selectivity for inhibiting TrkA versus other kinases in the panel” value was “remarkable and unexpected selectivity”.
